Species on record: Rattus norvegicus
Assay: DrugMatrix - Regimen: Daily Repeat
Assay type: toxicity, organism-based, Sprague-Dawley
Parameters: regimen Daily Repeat, gender Male, age 6-8 weeks
Conditions: in vivo, iv, vehicle 100 % SALINE; for ABSOLUTE BASOPHIL / ABSOLUTE EOSINOPHIL / ABSOLUTE LYMPHOCYTE / ABSOLUTE MONOCYTE / ABSOLUTE SEGMENTED NEUTROPHIL / BASOPHIL / EOSINOPHIL / ERYTHROCYTE COUNT / HEMATOCRIT / HEMOGLOBIN / LEUKOCYTE COUNT / LYMPHOCYTE / MEAN CORPUSCULAR HEMOGLOBIN / MEAN CORPUSCULAR HEMOGLOBIN CONCENTRATION / MEAN CORPUSCULAR VOLUME / MONOCYTE / NEUTROPHIL / NUCLEATED RED BLOOD CELLS: tissue Blood; for ALANINE AMINOTRANSFERASE / ALKALINE PHOSPHATASE / BLOOD UREA NITROGEN / CARBON DIOXIDE / CHOLESTEROL / CREATINE PHOSPHOKINASE / CREATININE / GLUCOSE / LACTATE DEHYDROGENASE / LIPASE / SODIUM / TOTAL BILIRUBIN / TOTAL PROTEIN / URIC ACID / ASPARTATE AMINOTRANSFERASE: tissue Plasma
[1] = 0 mg/kg, 72 h, dose level Control, time 3 day
[2] = 0 mg/kg, 120 h, dose level Control, time 5 day
[3] = 3 mg/kg, 72 h, dose level High, time 3 day

In the case of `COc1cccc2c1C(=O)c1c(O)c3c(c(O)c1C2=O)C[C@@](O)(C(=O)CO)C[C@@H]3O[C@H]1C[C@H](N)[C@H](O)[C@H](C)O1` [DOXORUBICIN], the “ABSOLUTE BASOPHIL” value [1] was 0 CELLS/uL, the “ABSOLUTE EOSINOPHIL” value [1] was 0 CELLS/uL and the “ABSOLUTE LYMPHOCYTE” value [1] was 7855.5 CELLS/uL. The “ABSOLUTE MONOCYTE” value [1] was 36.17 CELLS/uL, the “ABSOLUTE SEGMENTED NEUTROPHIL” value [1] was 575 CELLS/uL and the BASOPHIL [1] was 0%. The EOSINOPHIL [1] was 0%, the “ERYTHROCYTE COUNT” value [1] was 5.14 x10E6/uL and the HEMATOCRIT [1] was 33.22%. For the same compound, the HEMOGLOBIN [1] was 12.97 G/DL, the “LEUKOCYTE COUNT” value [1] was 8.47 x10E3/uL and the LYMPHOCYTE [1] was 93.17%. The “MEAN CORPUSCULAR HEMOGLOBIN” value [1] was 25.28 pg, the “MEAN CORPUSCULAR HEMOGLOBIN CONCENTRATION” value [1] was 39.05 G/DL and the “MEAN CORPUSCULAR VOLUME” value [1] was 64.75 fL. For the same compound, the MONOCYTE [1] was 0.33%, the NEUTROPHIL [1] was 6.5% and the “NUCLEATED RED BLOOD CELLS” value [1] was 0 /100WBC. For the same compound, the “ALANINE AMINOTRANSFERASE” value [1] was 61.67 u/L, the “ALKALINE PHOSPHATASE” value [1] was 292.33 u/L and the “BLOOD UREA NITROGEN” value [1] was 11 mg/dL. The “CARBON DIOXIDE” value [1] was 34.67 mmol/L, the CHOLESTEROL [1] was 71.17 mg/dL and the “CREATINE PHOSPHOKINASE” value [1] was 554.5 u/L. The CREATININE [1] was 0.31 mg/dL, the GLUCOSE [1] was 151 mg/dL and the “LACTATE DEHYDROGENASE” value [1] was 88.67 u/L. For the same compound, the LIPASE [1] was 18.83 u/L, the SODIUM [1] was 144.57 MEQ/L and the “TOTAL BILIRUBIN” value [1] was 0.17 mg/dL. The “TOTAL PROTEIN” value [1] was 5.8 G/DL, the “URIC ACID” value [1] was 0.52 mg/dL and the “ABSOLUTE BASOPHIL” value [2] was 0 CELLS/uL. The “ABSOLUTE EOSINOPHIL” value [2] was 53.33 CELLS/uL, the “ABSOLUTE LYMPHOCYTE” value [2] was 7739.83 CELLS/uL and the “ABSOLUTE MONOCYTE” value [2] was 74.83 CELLS/uL. For the same compound, the “ABSOLUTE SEGMENTED NEUTROPHIL” value [2] was 832 CELLS/uL, the BASOPHIL [2] was 0% and the EOSINOPHIL [2] was 0.67%. For the same compound, the “ERYTHROCYTE COUNT” value [2] was 5.55 x10E6/uL, the HEMATOCRIT [2] was 34.77% and the “LEUKOCYTE COUNT” value [2] was 8.7 x10E3/uL. For the same compound, the LYMPHOCYTE [2] was 89.17%, the “MEAN CORPUSCULAR HEMOGLOBIN” value [2] was 24.6 pg and the “MEAN CORPUSCULAR HEMOGLOBIN CONCENTRATION” value [2] was 39.2 G/DL. The “MEAN CORPUSCULAR VOLUME” value [2] was 62.78 fL, the MONOCYTE [2] was 0.67% and the NEUTROPHIL [2] was 9.5%. The “NUCLEATED RED BLOOD CELLS” value [2] was 0 /100WBC, the “ALANINE AMINOTRANSFERASE” value [2] was 50 u/L and the “ALKALINE PHOSPHATASE” value [2] was 271.17 u/L. The “ASPARTATE AMINOTRANSFERASE” value [2] was 84.17 u/L, the “BLOOD UREA NITROGEN” value [2] was 13.33 mg/dL and the “CARBON DIOXIDE” value [2] was 27 mmol/L. For the same compound, the CHOLESTEROL [2] was 68 mg/dL, the “CREATINE PHOSPHOKINASE” value [2] was 313.67 u/L and the CREATININE [2] was 0.21 mg/dL. For the same compound, the GLUCOSE [2] was 163 mg/dL, the “LACTATE DEHYDROGENASE” value [2] was 75.67 u/L and the LIPASE [2] was 11.5 u/L. The SODIUM [2] was 143.1 MEQ/L, the “TOTAL BILIRUBIN” value [2] was 0.2 mg/dL and the “TOTAL PROTEIN” value [2] was 6.08 G/DL. For the same compound, the “URIC ACID” value [2] was 0.68 mg/dL, the “ABSOLUTE BASOPHIL” value [3] was 0 CELLS/uL and the “ABSOLUTE EOSINOPHIL” value [3] was 0 CELLS/uL. The “ABSOLUTE LYMPHOCYTE” value [3] was 2936 CELLS/uL, the “ABSOLUTE MONOCYTE” value [3] was 0 CELLS/uL and the “ABSOLUTE SEGMENTED NEUTROPHIL” value [3] was 230.67 CELLS/uL. The BASOPHIL [3] was 0%, the EOSINOPHIL [3] was 0% and the “ERYTHROCYTE COUNT” value [3] was 5.1 x10E6/uL. The HEMATOCRIT [3] was 32.43%, the HEMOGLOBIN [3] was 12.87 G/DL and the “LEUKOCYTE COUNT” value [3] was 3.17 x10E3/uL. The LYMPHOCYTE [3] was 92.67%, the “MEAN CORPUSCULAR HEMOGLOBIN” value [3] was 25.23 pg and the “MEAN CORPUSCULAR HEMOGLOBIN CONCENTRATION” value [3] was 39.67 G/DL. For the same compound, the “MEAN CORPUSCULAR VOLUME” value [3] was 63.63 fL, the MONOCYTE [3] was 0% and the NEUTROPHIL [3] was 7.33%. The “NUCLEATED RED BLOOD CELLS” value [3] was 0 /100WBC, the “ALANINE AMINOTRANSFERASE” value [3] was 53.33 u/L and the “ALKALINE PHOSPHATASE” value [3] was 266 u/L. The “ASPARTATE AMINOTRANSFERASE” value [3] was 81.33 u/L, the “BLOOD UREA NITROGEN” value [3] was 16.67 mg/dL and the “CARBON DIOXIDE” value [3] was 31.33 mmol/L. The CHOLESTEROL [3] was 79.33 mg/dL, the “CREATINE PHOSPHOKINASE” value [3] was 216.67 u/L and the CREATININE [3] was 0.18 mg/dL. For the same compound, the GLUCOSE [3] was 145 mg/dL, the “LACTATE DEHYDROGENASE” value [3] was 77.67 u/L and the LIPASE [3] was 24 u/L. For the same compound, the SODIUM [3] was 143.8 MEQ/L, the “TOTAL BILIRUBIN” value [3] was 0.1 mg/dL and the “TOTAL PROTEIN” value [3] was 5.87 G/DL. For the same compound, the “URIC ACID” value [3] was 0.5 mg/dL.

Source: ChEMBL document CHEMBL3885881, “DrugMatrix”
